The source of these data is publication PMC7613620, “Reaction hijacking of tyrosine tRNA synthetase as a whole-of-life-cycle antimalarial strategy” (Science (New York, N.Y.), 2022).

Assay [1] deals with eIF2α phosphorylation in P. falciparum. Kind of assay: Western blot for phosphorylated-eIF2α. In kind it is cell-based, Plasmodium falciparum. The following applies: wildtype P. falciparum cultures. How it is done:
Synchronous ring-stage YRScyt conditional knockdown line and the aptamer-regulatable control
700 the drug plate. Lowest drug treatment and a lethal dose of chloroquine (200 nM) served as reference
Two guide RNAs (gRNA1: […] and gRNA2:
Ring-stage P. falciparum parasites (Dd2 strain) at 10%
Using a modification of a published procedure (14), the
722 cells were labelled with O-propargyl-puromycin (OPP; 4 µM) for 1 h, washed 3x (PBS +3% serum) and
Flow cytometry was performed
730 hematocrit and 5% parasitemia. The RBC pellet was washed 3 x in PBS + cOmplete. Cells were centrifuged
The wash with PBS + cOmplete and
The pellet was resuspended in Bolt LDS sample
The samples were vortexed for 10 min at room temperature.
Secondary antibodies: goat
740 anti-rabbit IgG-peroxidase (Sigma-Aldrich-A0545; 1:20 000), goat anti-mouse IgG-peroxidase (Chemicon-
Chemiluminescence was detected using the Bio-Rad ChemiDocTM MP imaging
For the human mature YRS construct,
The YRS sequences were codon optimized for E. coli,
The vector was transformed into
PfYRS, PfYRSS234C and HsYRS were induced
Cell pellets were resuspended in 40 mL lysis
Cells were lysed by sonication (Microtip, QSonica)
The supernatant was applied to a 5
757 mL HisTrap HP column (GE Healthcare) and washed with 50 mL binding buffer containing 50 mM Tris-
His-YRS was eluted using a 0-500 mM
The eluted His-YRS was dialyzed overnight at 4°C
760 against 50 mM Tris-HCl, pH 8, 500 mM NaCl, 30 mM imidazole, 1 mM TCEP with the addition of His-
Cleaved His tags from His-YRS and TEV
YRS was further purified by gel filtration using a HiLoad 16/600 Superdex 200 column (GE
A general note: A western blot detects proteins with antibodies after separation by electrophoresis.

In assay [2] the test system is H460. Nature of the assay: H460 cell viability (ATP content). In kind it is cell-based. As to conditions: Homo sapiens, NCI-H460, 72 h, read-out: H460 IC50(72h). How it is done: (§1) 574 H1650 is a human lung cancer derived ATG7-null cell line (49) that can be used to assess effects on targets
(§2) 576 adenocarcinoma; bronchoalveolar carcinoma). Other cells lines used are: H460 (NCI-H460; human lung;
(§3) 577 carcinoma; large cell lung cancer; ATCC: HTB-177); and HCT116 (human colon; colorectal carcinoma;
(§4) 578 ATCC: CCL-247; Lot : 5056139). Each of the cell lines was received from the American Type Culture
(§5) 579 Collection (ATCC) and passaged twice before freezing. Cells were cultured in the presence or absence of
(§6) 580 inhibitors and cell viability was assessed by comparing the ATP content in compound-treated wells with
(§7) 581 that in DMSO-treated wells as previously described (11). […]
(§8) 585 37°C humidified incubator as adherent semi-confluent monolayers in complete Dulbecco’s Modified Eagle
(§9) 586 Media (c-DMEM). DMEM (Gibco™, Thermo Fisher Scientific, Australia) was supplemented with 10%

Assay [3] deals with P. falciparum (3D7). Nature of the assay: P. falciparum (3D7) culture growth inhibition, 72 h. In kind it is cell-based, Plasmodium falciparum. The following applies: Plasmodium falciparum, 3D7, 72 h, read-out: Pf3D7 IC50(72h). How it is done:
(1 picture or pasted object on this page, not shown here)
553 Sigma-Aldrich) for 48-72 h. For drug pulse assays, tightly synchronized parasites (1-1.5% parasitemia,
554 0.2% final hematocrit) were added to the plates and incubated for 3 h. Drugs were removed and the
555 parasitemia assessed in the trophozoite stage of the next cycle.
557 Compounds were tested against a range of drug resistant field isolates and laboratory strains using a
558 modified [3H]-hypoxanthine incorporation assay, as previously reported (46). Field isolates 7G8, Cam3.1,
559 Dd2, K1, TM90C2B and NF54 were obtained from MR4 (www.beiresources.org).
561 Mammalian cell culture experiments
562 The HepG2 (Human hepatocyte carcinoma) cell line was procured from ATCC (American Type
563 Culture Collection, Manassas, USA; HB-8065) and viability assessed using Cell Titer-GLO luminescent
564 cell viability assay reagents (Promega, catalogue number: G7570) (47, 48). For the assay, 2000 cells/well
565 were plated in 384-well plates 24 h prior to the experiment and incubated at 37°C in a CO2 incubator. The
566 medium was removed and cells were treated with fresh medium containing either vehicle (0.5% DMSO)
567 or serially diluted test compounds or doxorubicin (1.3 nM to 25 µM) in a final volume of 50 µl/well and
568 further incubated for 72 h at 37°C in a CO2 incubator.
569 were treated with 5 µl of 1% Triton X-100 (final assay conc. 0.1%). Following incubation, 25 µl of medium
570 was discarded and 25 µl of Cell Titer-GLO reagent was added to each well and the plate was kept on a plate
571 shaker for 15 min at 25°C with shaking at 300 rpm. Luminescence signals were measured in a Spectramax
572 M5 reader (Molecular Devices).
as §1, §2, §3, §4, §5, §6
581 that in DMSO-treated wells as previously described (11).
583 HeLa cells (human cervical adenocarcinoma; genome sequenced (Garvin Institute, Australia) and verified

For assay [4], the system named is HCT116. Kind of assay: HCT116 cell viability (ATP content). The following applies: Homo sapiens, HCT-116, 72 h, read-out: HCT116 IC50(72h). In kind it is cell-based. How it is done:
as §1, §2, §3, §4, §5, §6, §7, §8, §9

Assay [5] relates to H1650. Kind of assay: H1650 cell viability (ATP content). In kind it is cell-based. The following applies: Homo sapiens, NCI-H1650, 72 h, read-out: H1650 IC50(72h). As to the method:
as §1, §2, §3, §4, §5, §6, §7, §8, §9

For assay [6], the target named is T1, PfYRS (Plasmodium falciparum, UniProt Q8IAR7). Kind of assay: Tyrosine acylation of cognate tRNATyr by PfYRS. In kind it is biochemical.
T1 sequence (Q8IAR7 entry or part of it): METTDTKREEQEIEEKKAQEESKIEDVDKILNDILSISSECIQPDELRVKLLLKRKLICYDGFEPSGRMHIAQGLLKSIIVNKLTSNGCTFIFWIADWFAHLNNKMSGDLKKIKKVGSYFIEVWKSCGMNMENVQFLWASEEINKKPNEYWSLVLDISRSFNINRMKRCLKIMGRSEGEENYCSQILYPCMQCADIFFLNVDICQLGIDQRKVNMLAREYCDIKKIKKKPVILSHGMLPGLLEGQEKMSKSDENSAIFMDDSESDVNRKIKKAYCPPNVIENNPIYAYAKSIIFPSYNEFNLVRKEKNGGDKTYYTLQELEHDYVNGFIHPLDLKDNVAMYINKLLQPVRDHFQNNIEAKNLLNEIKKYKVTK
Assay [7] concerns the target T2, HsYRS (Homo sapiens, UniProt P54577).
T2 construct: made in house; host or cells: E. coli BL21(DE3), pET-11a
T2 sequence (P54577 1-364): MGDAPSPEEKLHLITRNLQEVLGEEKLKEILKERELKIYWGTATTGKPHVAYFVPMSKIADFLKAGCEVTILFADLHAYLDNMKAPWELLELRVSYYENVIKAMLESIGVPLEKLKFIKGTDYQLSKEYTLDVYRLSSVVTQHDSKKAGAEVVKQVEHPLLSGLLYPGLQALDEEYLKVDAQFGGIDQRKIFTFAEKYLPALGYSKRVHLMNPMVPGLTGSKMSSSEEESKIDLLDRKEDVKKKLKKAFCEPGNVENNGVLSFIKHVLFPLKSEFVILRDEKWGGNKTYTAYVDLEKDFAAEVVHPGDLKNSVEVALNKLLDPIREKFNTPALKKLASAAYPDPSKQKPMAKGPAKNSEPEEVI
Kind of assay: Tyrosine acylation of cognate tRNATyr by HsYRS. In kind it is biochemical. As to conditions: YRS 0.25 μM, ATP 10 μM, 37°C 1 h.

The target of assay [8] is PfYRSS234C (Plasmodium falciparum, UniProt Q8IAR7, S234C). Kind of assay: biochemical. In kind it is binding. How it is done:
(§10) 804 An intron was detected in the PftRNATyr sequence, that was not indicated in PlasmoDB. A T7 RNA
(§11) 805 polymerase promoter sequence was added to the 5’ end of the DNA sequence of P. falciparum and H.
(§12) 806 sapiens tRNATyr. This DNA template and its complementary strand were custom-synthesized by Sigma-
(§13) 807 Aldrich. Two oligonucleotides were annealed at 95°C for 5 min and the double-stranded DNA template
(§14) 808 was used for in vitro transcription. The transcription reaction was incubated at 37°C overnight. The reaction
(§15) 809 mixture consists of template DNA, T7 RNA polymerase and NTP mix as per manufacturer's instructions
(§16) 810 (HiScribe™ T7 Quick High Yield RNA Synthesis Kit, NEB). On the following day, the reaction mixture
(§17) 811 was treated with DNase I at 37°C for 15 min. tRNA was purified using RNA clean-up spin columns
(§18) 812 (Monarch® RNA Cleanup Kit, NEB) to remove contaminants from the transcription reaction.
(§19) 814 Differential scanning fluorimetry (DSF)
(§20) 815 PfYRS and HsYRS at 0.1 mg/ml were incubated with various substrates at 37°C for 1-3 h. PfYRS was
(§21) 816 assayed in 25 mM Tris, pH 8, 150 mM NaCl, 5 mM MgCl2 and 1 mM TCEP. HsYRS was assayed in 50
(§22) 817 mM Tris, pH 7.5, 150 mM NaCl, 50 mM KCl, 5 mM MgCl2 and 1 mM TCEP. SYPRO Orange (Sigma-
(§23) 818 Aldrich; 5,000X concentrate in DMSO) was added to the reaction mixture at a final concentration of 2.5X.
(§24) 819 25 µL of the sample was added into each well of a 96-well qPCR plate (Applied Biosystems). The plate
(§25) 820 was sealed and analysed using StepOnePlus Real-Time PCR system (Applied Biosystems). The samples
(§26) 821 were heated from 20°C to 90°C with a 1% continuous gradient. The thermal unfolding curve was plotted
(§27) 822 as the first derivative curve of the raw fluorescence values. The melting temperature (Tm), defined as the
(§28) 823 peak of the first derivative curve, was used to assess the thermal stability of protein-ligand complexes. KD
(§29) 824 values were calculated from DTm using the equation: ln(KD/[L]) = -131.5 x (∆Tm/Tm,apo) - 1.9, where [L]
(§30) 825 is the concentration of ligand and T is the temperature in Kelvin (40). […]

The target in assay [9] is T1, PfYRS. Kind of assay: biochemical. In kind it is binding. How it is done:
as §10, §11, §12, §13, §14, §15, §16, §17, §18, §19, §20, §21, §22, §23, §24, §25, §26, §27, §28, §29, §30

For orientation: IC50 means the midpoint of a concentration-inhibition curve. For orientation: Kd means a measure of binding affinity in units of concentration. High values mean lower affinity, low ones higher affinity.

PfYRSS234C, sequence (Q8IAR7 whole entry S234C): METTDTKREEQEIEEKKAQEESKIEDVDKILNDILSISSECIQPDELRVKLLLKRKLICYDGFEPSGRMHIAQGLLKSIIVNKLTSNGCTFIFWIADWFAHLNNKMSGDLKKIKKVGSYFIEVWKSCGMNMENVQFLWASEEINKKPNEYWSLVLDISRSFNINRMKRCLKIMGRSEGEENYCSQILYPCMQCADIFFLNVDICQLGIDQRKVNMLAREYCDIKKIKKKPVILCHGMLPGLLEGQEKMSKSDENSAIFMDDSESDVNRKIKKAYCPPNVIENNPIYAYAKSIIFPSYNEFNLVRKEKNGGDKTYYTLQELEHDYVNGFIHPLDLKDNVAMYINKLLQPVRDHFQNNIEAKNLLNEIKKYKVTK

In the case of `Nc1ncnc2c1ncn2[C@@H]1O[C@H](COS(N)(=O)=O)[C@@H](O)[C@H]1O` [AMS, adenosine 5′-sulfamate, reference compound], in assay [1], the eIF2α phosphorylation result is given as “triggers eIF2α phosphorylation”. For the same compound, the half-inhibitory concentration (IC50) in [2] was determined as 25 ± 7 nM; in assay [3], 1.8 nM; in assay [4] it was 26 nM; in assay [5], 140 nM.
Take `Nc1ncnc2c1c(OC(F)F)nn2C1OC(COS(=O)(=O)NC(=O)C(N)Cc2ccc(O)cc2)C(O)C1O` (stereo not drawn) [ML901-Tyr]: the half-maximal inhibitory concentration (IC50) in [6] was determined as 1600 nM; in assay [7], 23000 nM. In addition, the Kd in assay [8] is 3.9 nM; in assay [9], 0.7 nM. For the same compound, the Tm in assay [8] (PfYRSS234C 2.3 μM, after incubation at 37°C for 3 h) is on record as 59.7 ± 0.3 oC; in [9] (PfYRS 2.3 μM, after incubation at 37°C for 3 h) it was 65.1 ± 0.1 oC. In [9] (PfYRS, versus apo), the DTm worked out at 14.9 oC.
